Measurements as given in ChEMBL document CHEMBL4334471, “Discovery of 1,8-disubstituted-[1,2,3]triazolo[4,5-c]quinoline derivatives as a new class of Hippo signaling pathway inhibitors” (Bioorg Med Chem Lett, 2019).

Key:
[1] = system: Tyrosine-protein kinase ABL1 (Homo sapiens), P00519 [H396P]; test: Inhibition of human ABL1 H396P mutant (27 to end residues) assessed as residual activity at 10 uM using EAIYAAPFAKKK as substrate incubated for 40 mins in presence of [gamma-33ATP] by scintillation counting based radiometry assay relative to control
[2] = biological target: Bone morphogenetic protein receptor type-2 (Homo sapiens) (UniProt Q13873); test: Inhibition of recombinant human BMPR2 (172 to 734 residues) assessed as residual activity at 10 uM using myelin basic protein as substrate incubated for 120 mins in presence of [gamma-33ATP] by scintillation counting based radiometry assay relative to control
[3] = system: CDK18/Cyclin Y (Homo sapiens), Q07002+Q8ND76 [T166M]; test: Inhibition of recombinant full length human CDK18/cyclinY T166M mutant assessed as residual activity at 10 uM using YRRAAVPPSPSLS as substrate incubated for 40 mins in presence of [gamma-33ATP] by scintillation counting based radiometry assay relative to control; type: protein-complex assay
[4] = biological target: Serine/threonine-protein kinase 17A (Homo sapiens) (UniProt Q9UEE5); test: Inhibition of recombinant human DRAK1 assessed as residual activity at 10 uM using KKLNRTLSFAEPG as substrate at 40 mins in presence of [gamma-33ATP] by scintillation counting based radiometry assay relative to control
[5] = system: Epidermal growth factor receptor (Homo sapiens), P00533 [L861Q]; test: Inhibition of recombinant human EGFR L861Q mutant (696 to end residues) assessed as residual activity at 10 uM using poly(Glu, Tyr) 4:1 as substrate at 40 mins in presence of [gamma-33ATP] by scintillation counting based radiometry assay relative to control
[6] = biological target: Ephrin type-A receptor 1 (Homo sapiens) (UniProt P21709); test: Inhibition of recombinant human EphA1 (568 to end residues) assessed as residual activity at 10 uM using KKKSPGEYVNIEF as substrate at 40 mins in presence of [gamma-33ATP] by scintillation counting based radiometry assay relative to control
Chain of Ephrin type-A receptor 1 (Homo sapiens) (P21709 whole entry, the tested form may be a part): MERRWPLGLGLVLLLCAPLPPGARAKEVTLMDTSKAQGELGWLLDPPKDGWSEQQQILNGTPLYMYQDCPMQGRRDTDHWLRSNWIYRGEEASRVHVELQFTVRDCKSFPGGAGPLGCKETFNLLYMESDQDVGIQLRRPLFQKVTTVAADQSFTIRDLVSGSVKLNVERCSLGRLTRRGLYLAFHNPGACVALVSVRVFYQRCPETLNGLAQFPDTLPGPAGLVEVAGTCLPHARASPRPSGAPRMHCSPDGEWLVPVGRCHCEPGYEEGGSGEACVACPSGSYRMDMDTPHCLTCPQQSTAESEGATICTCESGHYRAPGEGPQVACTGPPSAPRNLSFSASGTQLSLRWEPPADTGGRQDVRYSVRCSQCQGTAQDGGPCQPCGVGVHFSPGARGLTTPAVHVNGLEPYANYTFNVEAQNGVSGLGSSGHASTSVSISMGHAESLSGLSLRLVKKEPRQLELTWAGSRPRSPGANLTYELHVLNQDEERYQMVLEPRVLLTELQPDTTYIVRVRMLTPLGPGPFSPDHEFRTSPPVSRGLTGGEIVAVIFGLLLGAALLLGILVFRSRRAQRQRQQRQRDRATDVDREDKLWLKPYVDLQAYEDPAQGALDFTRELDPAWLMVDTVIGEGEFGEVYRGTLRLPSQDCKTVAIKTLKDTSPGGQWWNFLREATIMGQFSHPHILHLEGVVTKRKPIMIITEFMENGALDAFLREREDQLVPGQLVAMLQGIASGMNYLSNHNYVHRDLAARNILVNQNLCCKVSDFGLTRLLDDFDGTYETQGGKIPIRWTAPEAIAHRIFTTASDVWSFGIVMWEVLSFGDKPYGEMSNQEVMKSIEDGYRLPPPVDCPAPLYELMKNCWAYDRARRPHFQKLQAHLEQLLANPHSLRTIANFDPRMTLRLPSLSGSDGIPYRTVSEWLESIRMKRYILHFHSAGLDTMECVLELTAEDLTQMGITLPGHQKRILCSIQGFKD

[7] = biological target: Ephrin type-A receptor 2 (Homo sapiens) (UniProt P29317); test: Inhibition of recombinant human EphA2 (596 to 900 residues) assessed as residual activity at 10 uM using poly(Glu, Tyr) 4:1 as substrate at 40 mins in presence of [gamma-33ATP] by scintillation counting based radiometry assay relative to control
[8] = biological target: Ephrin type-B receptor 4 (Homo sapiens) (UniProt P54760); test: Inhibition of recombinant human EphB4 (561 to end residues) assessed as residual activity at 10 uM using poly(Glu, Tyr) 4:1 as substrate at 40 mins in presence of [gamma-33ATP] by scintillation counting based radiometry assay relative to control
[9] = biological target: Fibroblast growth factor receptor 1 (Homo sapiens) (UniProt P11362); test: Inhibition of recombinant human FGFR1 (456 to 765 residues) assessed as residual activity at 10 uM using KKKSPGEYVNIEF as substrate at 40 mins in presence of [gamma-33ATP] by scintillation counting based radiometry assay relative to control
[10] = biological target: Homeodomain-interacting protein kinase 1 (Homo sapiens) (UniProt Q86Z02); test: Inhibition of human HIPK1 (158 to 555 residues) assessed as residual activity at 10 uM using myelin basic protein as substrate after 40 mins by [gamma-33ATP] radiometric assay relative to control
[11] = biological target: Serine/threonine-protein kinase ICK (Homo sapiens) (UniProt Q9UPZ9); test: Inhibition of human ICK (1 to 312 residues) assessed as residual activity at 10 uM using RRRFRPASPLRGP as substrate after 40 mins by [gamma-33ATP] radiometric assay relative to control
[12] = biological target: Insulin-like growth factor 1 receptor (Homo sapiens) (UniProt P08069); test: Inhibition of human IGF1R (959 to end residues) assessed as residual activity at 10 uM using KKKSPGEYVNIEFGF as substrate after 40 mins by [gamma-33ATP] radiometric assay relative to control
[13] = biological target: Mitogen-activated protein kinase kinase kinase 11 (Homo sapiens) (UniProt Q16584); test: Inhibition of recombinant human MLK3 assessed as residual activity at 10 uM using by scintillation counting based radiometry assay relative to control
Chain of Mitogen-activated protein kinase kinase kinase 11 (Homo sapiens) (Q16584 whole entry, looked up): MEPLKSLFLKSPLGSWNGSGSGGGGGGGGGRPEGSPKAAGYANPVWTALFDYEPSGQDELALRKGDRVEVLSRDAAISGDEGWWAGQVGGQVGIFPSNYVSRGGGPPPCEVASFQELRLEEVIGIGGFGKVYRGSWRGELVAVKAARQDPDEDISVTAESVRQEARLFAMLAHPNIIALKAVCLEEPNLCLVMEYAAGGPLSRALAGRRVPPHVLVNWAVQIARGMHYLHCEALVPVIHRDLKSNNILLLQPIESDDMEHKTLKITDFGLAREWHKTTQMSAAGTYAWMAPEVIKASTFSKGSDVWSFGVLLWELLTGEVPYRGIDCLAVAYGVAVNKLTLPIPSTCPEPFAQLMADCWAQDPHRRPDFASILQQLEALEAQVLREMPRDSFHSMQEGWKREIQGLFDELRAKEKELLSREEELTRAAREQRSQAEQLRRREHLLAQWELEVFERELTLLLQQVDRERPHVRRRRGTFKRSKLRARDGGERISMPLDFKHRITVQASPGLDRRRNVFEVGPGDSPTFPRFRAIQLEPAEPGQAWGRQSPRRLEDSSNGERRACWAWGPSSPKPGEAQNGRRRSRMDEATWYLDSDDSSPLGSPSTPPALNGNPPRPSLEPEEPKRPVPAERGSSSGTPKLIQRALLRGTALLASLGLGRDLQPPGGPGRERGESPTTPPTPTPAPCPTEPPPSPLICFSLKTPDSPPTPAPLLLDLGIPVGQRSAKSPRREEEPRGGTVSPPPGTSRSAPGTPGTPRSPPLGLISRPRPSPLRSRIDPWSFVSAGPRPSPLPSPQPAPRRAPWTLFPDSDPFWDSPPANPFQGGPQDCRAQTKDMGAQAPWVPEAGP

[14] = biological target: Serine/threonine-protein kinase pim-2 (Homo sapiens) (UniProt Q9P1W9); test: Inhibition of recombinant human Pim2 (2 to end residues) assessed as residual activity at 10 uM using RSRHSSYPAG as substrate incubated for 40 mins in presence of [gamma33P]ATP by scintillation counting based radiometry assay relative to control
[15] = biological target: Protein kinase C alpha type (Homo sapiens) (UniProt P17252); test: Inhibition of recombinant human full length PKCalpha assessed as residual activity at 10 uM using histone H1 as substrate incubated for 40 mins in presence of [gamma33P]ATP by scintillation counting based radiometry assay relative to control
[16] = biological target: Serine/threonine-protein kinase D3 (Homo sapiens) (UniProt O94806); test: Inhibition of recombinant full-length human PKD3 assessed as residual activity at 10 uM using KKLNRTLSVA as substrate incubated for 40 mins in presence of [gamma33P]ATP by scintillation counting based radiometry assay relative to control
[17] = system: Proto-oncogene tyrosine-protein kinase receptor Ret (Homo sapiens), P07949 [V804L]; test: Inhibition of recombinant human Ret V804L mutant (658 to end residues) assessed as residual activity at 10 uM using KKKSPGEYVNIEFG as substrate incubated for 40 mins in presence of [gamma33P]ATP by scintillation counting based radiometry assay relative to control
[18] = biological target: Transcription initiation factor TFIID subunit 1-like (Homo sapiens) (UniProt Q8IZX4); test: Inhibition of recombinant human TAF1L (1428 to end residues) assessed as residual activity at 10 uM using RRRFRPASPLRGPPK as substrate incubated for 40 mins in presence of [gamma33P]ATP by scintillation counting based radiometry assay relative to control
[19] = biological target: Serine/threonine-protein kinase WNK2 (Homo sapiens) (UniProt Q9Y3S1); test: Inhibition of recombinant human WNK2 (166 to 489 residues) assessed as residual activity at 10 uM using myelin basic protein as substrate incubated for 40 mins in presence of [gamma33P]ATP by scintillation counting based radiometry assay relative to control
Chain of Serine/threonine-protein kinase WNK2 (Homo sapiens) (Q9Y3S1 whole entry, the tested form may be a part): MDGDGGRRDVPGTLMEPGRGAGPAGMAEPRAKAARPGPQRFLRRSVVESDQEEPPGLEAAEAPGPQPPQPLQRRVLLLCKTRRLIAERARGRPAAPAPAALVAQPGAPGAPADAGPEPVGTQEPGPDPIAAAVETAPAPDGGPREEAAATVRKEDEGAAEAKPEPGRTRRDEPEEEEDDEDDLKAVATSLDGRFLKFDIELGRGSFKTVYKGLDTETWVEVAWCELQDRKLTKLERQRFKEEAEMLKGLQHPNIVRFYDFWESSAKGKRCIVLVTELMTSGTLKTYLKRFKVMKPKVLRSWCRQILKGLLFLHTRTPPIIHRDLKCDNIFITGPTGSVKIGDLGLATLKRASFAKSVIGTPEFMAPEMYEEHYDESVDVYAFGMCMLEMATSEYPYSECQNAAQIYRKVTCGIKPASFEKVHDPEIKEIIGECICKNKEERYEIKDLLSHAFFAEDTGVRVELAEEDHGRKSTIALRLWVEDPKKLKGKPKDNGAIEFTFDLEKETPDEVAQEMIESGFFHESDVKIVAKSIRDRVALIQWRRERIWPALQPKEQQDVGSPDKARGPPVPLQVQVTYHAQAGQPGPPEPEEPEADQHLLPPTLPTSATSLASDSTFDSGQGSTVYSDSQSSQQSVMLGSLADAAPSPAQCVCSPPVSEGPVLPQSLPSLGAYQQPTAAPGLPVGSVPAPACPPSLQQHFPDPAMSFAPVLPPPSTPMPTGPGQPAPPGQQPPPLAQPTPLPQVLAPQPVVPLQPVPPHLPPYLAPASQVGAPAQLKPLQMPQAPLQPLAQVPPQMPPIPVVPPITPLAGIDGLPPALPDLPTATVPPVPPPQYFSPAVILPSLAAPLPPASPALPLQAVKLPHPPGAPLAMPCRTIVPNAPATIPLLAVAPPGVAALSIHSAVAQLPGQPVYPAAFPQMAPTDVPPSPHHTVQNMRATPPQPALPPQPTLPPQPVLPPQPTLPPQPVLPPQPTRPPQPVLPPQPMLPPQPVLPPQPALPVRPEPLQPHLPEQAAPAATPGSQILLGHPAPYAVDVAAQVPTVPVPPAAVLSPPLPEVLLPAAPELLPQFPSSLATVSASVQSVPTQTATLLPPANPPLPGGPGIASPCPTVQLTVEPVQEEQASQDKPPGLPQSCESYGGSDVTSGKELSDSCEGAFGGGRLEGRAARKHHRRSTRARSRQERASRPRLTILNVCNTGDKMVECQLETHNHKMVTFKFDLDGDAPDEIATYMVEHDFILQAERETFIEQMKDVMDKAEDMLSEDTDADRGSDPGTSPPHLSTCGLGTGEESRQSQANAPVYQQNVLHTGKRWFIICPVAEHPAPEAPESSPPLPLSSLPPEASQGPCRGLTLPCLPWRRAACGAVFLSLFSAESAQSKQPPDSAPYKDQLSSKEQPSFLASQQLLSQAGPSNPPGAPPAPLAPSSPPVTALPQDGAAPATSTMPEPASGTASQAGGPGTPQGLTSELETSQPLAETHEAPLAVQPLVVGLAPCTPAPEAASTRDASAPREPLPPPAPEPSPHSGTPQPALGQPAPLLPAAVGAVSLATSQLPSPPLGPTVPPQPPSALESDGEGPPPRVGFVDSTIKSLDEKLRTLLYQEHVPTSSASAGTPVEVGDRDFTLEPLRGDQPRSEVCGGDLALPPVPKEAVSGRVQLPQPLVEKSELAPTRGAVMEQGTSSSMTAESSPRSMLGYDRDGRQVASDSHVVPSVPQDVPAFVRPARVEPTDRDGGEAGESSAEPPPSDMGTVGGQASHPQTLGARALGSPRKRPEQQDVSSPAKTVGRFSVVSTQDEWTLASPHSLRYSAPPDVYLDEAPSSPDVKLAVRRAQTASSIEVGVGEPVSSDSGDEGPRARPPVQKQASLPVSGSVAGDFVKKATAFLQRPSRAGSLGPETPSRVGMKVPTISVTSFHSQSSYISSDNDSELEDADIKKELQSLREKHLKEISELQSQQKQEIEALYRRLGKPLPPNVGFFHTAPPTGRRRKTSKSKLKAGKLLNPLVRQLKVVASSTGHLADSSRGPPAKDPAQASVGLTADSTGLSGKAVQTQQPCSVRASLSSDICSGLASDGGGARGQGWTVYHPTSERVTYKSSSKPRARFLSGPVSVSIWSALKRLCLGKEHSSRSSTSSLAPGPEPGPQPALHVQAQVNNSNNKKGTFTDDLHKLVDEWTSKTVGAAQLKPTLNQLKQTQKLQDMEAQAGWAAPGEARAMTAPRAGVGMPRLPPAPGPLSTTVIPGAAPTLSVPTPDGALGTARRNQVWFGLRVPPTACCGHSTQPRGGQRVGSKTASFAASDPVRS

Mus musculus = organism: Mus musculus; test: Inhibition of recombinant full length mouse PI3K p110/p65 assessed as residual activity at 10 uM using phosphatidylinositol-4, 5-bisphosphate as substrate incubated for 40 mins in presence of [gamma33P]ATP by scintillation counting based radiometry assay relative to control
[20] = biological target: Mitogen-activated protein kinase kinase kinase 10 (Homo sapiens) (UniProt Q02779); test: Inhibition of recombinant human MLK2 (1 to 499 residues) assessed as residual activity at 10 uM using myelin basic protein as substrate incubated for 40 mins in presence of [gamma-33ATP by scintillation counting based radiometry assay relative to control
Chain of Mitogen-activated protein kinase kinase kinase 10 (Homo sapiens) (Q02779 whole entry, looked up, the tested form may be a part): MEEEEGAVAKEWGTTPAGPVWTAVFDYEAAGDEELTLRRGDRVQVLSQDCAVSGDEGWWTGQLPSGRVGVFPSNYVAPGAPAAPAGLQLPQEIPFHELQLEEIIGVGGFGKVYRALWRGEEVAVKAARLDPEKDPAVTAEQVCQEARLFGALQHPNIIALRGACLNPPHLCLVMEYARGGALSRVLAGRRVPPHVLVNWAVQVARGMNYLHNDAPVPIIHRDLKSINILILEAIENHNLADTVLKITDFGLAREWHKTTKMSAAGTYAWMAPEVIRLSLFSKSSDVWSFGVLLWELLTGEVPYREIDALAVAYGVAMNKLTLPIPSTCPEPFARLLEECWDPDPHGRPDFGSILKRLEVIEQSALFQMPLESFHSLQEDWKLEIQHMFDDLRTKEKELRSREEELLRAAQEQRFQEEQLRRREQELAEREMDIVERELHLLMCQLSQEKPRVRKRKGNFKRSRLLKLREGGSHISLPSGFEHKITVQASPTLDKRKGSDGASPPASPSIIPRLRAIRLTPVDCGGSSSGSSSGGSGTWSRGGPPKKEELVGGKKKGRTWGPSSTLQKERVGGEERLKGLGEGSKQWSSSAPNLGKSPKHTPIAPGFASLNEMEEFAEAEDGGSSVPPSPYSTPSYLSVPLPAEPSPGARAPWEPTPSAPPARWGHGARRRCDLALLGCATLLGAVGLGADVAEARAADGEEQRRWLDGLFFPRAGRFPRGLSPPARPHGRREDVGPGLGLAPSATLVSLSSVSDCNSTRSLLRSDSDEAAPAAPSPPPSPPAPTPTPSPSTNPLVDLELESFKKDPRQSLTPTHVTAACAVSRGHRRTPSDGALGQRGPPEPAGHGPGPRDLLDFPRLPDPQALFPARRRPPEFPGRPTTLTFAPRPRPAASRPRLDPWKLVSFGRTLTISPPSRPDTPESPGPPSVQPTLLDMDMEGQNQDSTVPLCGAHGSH

SMILES: C[C@@H](c1ccccc1)n1nnc2cnc3ccc(-c4cnc5[nH]ccc5c4)cc3c21
- Activity [1]: -1%
- Activity [2]: 80%
- Activity [3]: 94%
- Activity [4]: 60%
- Activity [5]: 70%
- Activity [6]: 91%
- Activity [7]: 68%
- Activity [8]: 71%
- Activity [9]: 34%
- Activity [10]: 78%
- Activity [11]: 44%
- Activity [12]: 50%
- Activity [13]: 73%
- Activity [14]: 80%
- Activity [15]: 77%
- Activity [16]: 53%
- Activity [17]: 90%
- Activity [18]: 85%
- Activity [19]: 85%
- Activity (Mus musculus): 14%
- Activity [20]: 69%
